Test results as given in patent US20070166415A1, “Safe medicine for treating and preventing cancer and method of use” (priority 2006, published 2007).

What was measured:
[1] = Metabolism (organ and blood radioactivity) of [^3H]-HHT in P388 mice; format: in vivo
Experimental: Animals: Adult DBA/2J male mice, 6 to 8 weeks old. All animals weighed approximately 25 g when used in experiments. Each member of which received identical dosed (i.p.) of HHT. Tumor: P388 leukemic cells induced in mice by inoculation with L1210 or P388 leukemic cells (1.0×10^5). After P388 induced in mice 5 days, 1 mg/kg of [^3H]-HHT (100 μC/mg) was injected to mice. […] Mice were killed at 1, 3, 6 and 24 hours after injection of [^3H]-HHT. The key data of HHT in metabolism process are determined counts per minute (CPM) of [^3H]-HHT in organs. CPM is determined by liquid scintillation counting (LSC). The methods of LSC combined with radioactive of [^3H]-HHT can be determined using a tracer of HHT in organs. After killed animals, organs and blood were obtained from P388 mice. […] Other processes are similar to the standard method.

[2] = tested on: salmonella typhimurium TA98; test: Salmonella mutagenicity test, TA98; format: cell-based
Experimental: (§1) Methods for detecting carcinogens and mutagens with the salmonellia mutagenicity test are highly efficient in detecting carcinogens and mutagens. Major carcinogens tested have been detected as mutagens. Salmonella mutagenicity assay is very sensitive and simply test for detecting mutagens and carcinogens.
(§2) Mutagenicity assays were carried out at least in triplicate.

[3] = tested on: salmonella typhimurium TA100; test: Salmonella mutagenicity test, TA100; format: cell-based
Experimental: as §1, §2

[4] = tested on: salmonella typhimurium TA97; test: Salmonella mutagenicity test, TA97; format: cell-based
Experimental: as §1, §2

[5] = dog, in vivo
Excerpt: Twenty normal adult dogs which weight approximately 10 kg[…] used in experiments.
Most deaths were caused by cardiac dysfunction.

COC(=O)C[C@](O)(CCCC(C)(C)O)C(=O)O[C@@H]1C(OC)=C[C@]23CCCN2CCc2cc4c(cc2[C@H]13)OCO4 [HHT, Homoharringtonine]
CPM of [^3H]-HHT, Bone ([1]; 1 hour after 1 mg/kg i.p.): 500 CMP/mg organ
CPM of [^3H]-HHT, Brain ([1]; 1 hour after 1 mg/kg i.p.): 499 CMP/mg organ
CPM of [^3H]-HHT, Contents of intestine ([1]; 1 hour after 1 mg/kg i.p.): 3323 CMP/mg organ
CPM of [^3H]-HHT, Contents of stomach ([1]; 1 hour after 1 mg/kg i.p.): 6821 CMP/mg organ
CPM of [^3H]-HHT, Heart ([1]; 1 hour after 1 mg/kg i.p.): 1403 CMP/mg organ
CPM of [^3H]-HHT, Intestine ([1]; 1 hour after 1 mg/kg i.p.): 1638 CMP/mg organ
CPM of [^3H]-HHT, Kidney ([1]; 1 hour after 1 mg/kg i.p.): 6501 CMP/mg organ
CPM of [^3H]-HHT, Liver ([1]; 1 hour after 1 mg/kg i.p.): 4145 CMP/mg organ
CPM of [^3H]-HHT, Lung ([1]; 1 hour after 1 mg/kg i.p.): 2100 CMP/mg organ
CPM of [^3H]-HHT, Spleen ([1]; 1 hour after 1 mg/kg i.p.): 2828 CMP/mg organ
CPM of [^3H]-HHT, Stomach ([1]; 1 hour after 1 mg/kg i.p.): 1626 CMP/mg organ
CPM of [^3H]-HHT, Bone ([1]; 3 hours after 1 mg/kg i.p.): 560 CMP/mg organ
CPM of [^3H]-HHT, Brain ([1]; 3 hours after 1 mg/kg i.p.): 646 CMP/mg organ
CPM of [^3H]-HHT, Contents of intestine ([1]; 3 hours after 1 mg/kg i.p.): 7215 CMP/mg organ
CPM of [^3H]-HHT, Contents of stomach ([1]; 3 hours after 1 mg/kg i.p.): 84375 CMP/mg organ
CPM of [^3H]-HHT, Heart ([1]; 3 hours after 1 mg/kg i.p.): 1800 CMP/mg organ
CPM of [^3H]-HHT, Intestine ([1]; 3 hours after 1 mg/kg i.p.): 3288 CMP/mg organ
CPM of [^3H]-HHT, Kidney ([1]; 3 hours after 1 mg/kg i.p.): 3121 CMP/mg organ
CPM of [^3H]-HHT, Liver ([1]; 3 hours after 1 mg/kg i.p.): 6718 CMP/mg organ
CPM of [^3H]-HHT, Lung ([1]; 3 hours after 1 mg/kg i.p.): 2427 CMP/mg organ
CPM of [^3H]-HHT, Spleen ([1]; 3 hours after 1 mg/kg i.p.): 2426 CMP/mg organ
CPM of [^3H]-HHT, Stomach ([1]; 3 hours after 1 mg/kg i.p.): 2321 CMP/mg organ
CPM of [^3H]-HHT, Bone ([1]; 6 hours after 1 mg/kg i.p.): 505 CMP/mg organ
CPM of [^3H]-HHT, Brain ([1]; 6 hours after 1 mg/kg i.p.): 793 CMP/mg organ
CPM of [^3H]-HHT, Contents of intestine ([1]; 6 hours after 1 mg/kg i.p.): 6250 CMP/mg organ
CPM of [^3H]-HHT, Contents of stomach ([1]; 6 hours after 1 mg/kg i.p.): 100719 CMP/mg organ
CPM of [^3H]-HHT, Heart ([1]; 6 hours after 1 mg/kg i.p.): 1193 CMP/mg organ
CPM of [^3H]-HHT, Intestine ([1]; 6 hours after 1 mg/kg i.p.): 2475 CMP/mg organ
CPM of [^3H]-HHT, Kidney ([1]; 6 hours after 1 mg/kg i.p.): 3501 CMP/mg organ
CPM of [^3H]-HHT, Liver ([1]; 6 hours after 1 mg/kg i.p.): 4109 CMP/mg organ
CPM of [^3H]-HHT, Lung ([1]; 6 hours after 1 mg/kg i.p.): 1788 CMP/mg organ
CPM of [^3H]-HHT, Spleen ([1]; 6 hours after 1 mg/kg i.p.): 2198 CMP/mg organ
CPM of [^3H]-HHT, Stomach ([1]; 6 hours after 1 mg/kg i.p.): 3703 CMP/mg organ
Number of His^+revertants/plate ([2]; TA98 +S, 0.1 μg/plate): 34 ± 4 revertants/plate
Number of His^+revertants/plate ([2]; TA98 +S, 1 μg/plate): 32 ± 4 revertants/plate
Number of His^+revertants/plate ([2]; TA98 +S, 10 μg/plate): 36 ± 3 revertants/plate
Number of His^+revertants/plate ([2]; TA98 +S, 100 μg/plate): 34 ± 4 revertants/plate
Number of His^+revertants/plate ([2]; TA98 −S, 0.1 μg/plate): 29 ± 3 revertants/plate
Number of His^+revertants/plate ([2]; TA98 −S, 1 μg/plate): 30 ± 3 revertants/plate
Number of His^+revertants/plate ([2]; TA98 −S, 10 μg/plate): 38 ± 4 revertants/plate
Number of His^+revertants/plate ([2]; TA98 −S, 100 μg/plate): 32 ± 4 revertants/plate
Number of His^+revertants/plate ([3]; TA100 +S, 0.1 μg/plate): 158 revertants/plate
Number of His^+revertants/plate ([3]; TA100 +S, 1 μg/plate): 152 revertants/plate
Number of His^+revertants/plate ([3]; TA100 +S, 10 μg/plate): 165 revertants/plate
Number of His^+revertants/plate ([3]; TA100 +S, 100 μg/plate): 160 revertants/plate
Number of His^+revertants/plate ([3]; TA100 −S, 0.1 μg/plate): 148 ± 12 revertants/plate
Number of His^+revertants/plate ([3]; TA100 −S, 1 μg/plate): 140 ± 13 revertants/plate
Number of His^+revertants/plate ([3]; TA100 −S, 10 μg/plate): 162 ± 17 revertants/plate
Number of His^+revertants/plate ([3]; TA100 −S, 100 μg/plate): 158 ± 15 revertants/plate
Number of His^+revertants/plate ([4]; TA97 +S, 0.1 μg/plate): 145 ± 14 revertants/plate
Number of His^+revertants/plate ([4]; TA97 +S, 1 μg/plate): 150 ± 14 revertants/plate
Number of His^+revertants/plate ([4]; TA97 +S, 10 μg/plate): 165 ± 16 revertants/plate
Number of His^+revertants/plate ([4]; TA97 +S, 100 μg/plate): 160 ± 17 revertants/plate
Number of His^+revertants/plate ([4]; TA97 −S, 0.1 μg/plate): 120 ± 10 revertants/plate
Number of His^+revertants/plate ([4]; TA97 −S, 1 μg/plate): 130 ± 11 revertants/plate
Number of His^+revertants/plate ([4]; TA97 −S, 10 μg/plate): 160 ± 16 revertants/plate
Number of His^+revertants/plate ([4]; TA97 −S, 100 μg/plate): 150 ± 16 revertants/plate
reversibility of toxicities observed [5]: completely reversible upon discontinuation of treatment
